Publication PMC2600596 (European journal of pharmacology, 2008)

What was measured:
mu opioid receptor = assay type: binding; details: whole CHO cells, data not shown
[1] = molecular target: T1, hMOR (human mu opioid receptor) (Homo sapiens, UniProt P35372); assay type: binding
hMOR = details: pH 7.5; cited from earlier work
[2] = molecular target: T1, hMOR (human mu opioid receptor); assay type: cell-based

T1 sequence (P35372 whole entry): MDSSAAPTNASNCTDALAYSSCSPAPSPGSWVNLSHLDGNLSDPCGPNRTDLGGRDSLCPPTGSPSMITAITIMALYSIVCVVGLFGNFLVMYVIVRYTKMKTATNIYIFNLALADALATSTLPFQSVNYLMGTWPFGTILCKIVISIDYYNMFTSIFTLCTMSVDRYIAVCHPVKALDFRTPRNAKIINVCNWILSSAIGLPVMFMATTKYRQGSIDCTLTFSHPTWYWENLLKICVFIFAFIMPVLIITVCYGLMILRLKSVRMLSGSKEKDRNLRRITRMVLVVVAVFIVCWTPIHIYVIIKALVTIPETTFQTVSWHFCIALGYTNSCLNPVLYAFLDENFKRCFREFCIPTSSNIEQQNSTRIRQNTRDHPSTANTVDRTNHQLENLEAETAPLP

| Structure (SMILES) | [3H]-naloxone radioligand binding displaced (mu opioid receptor) | Hill Slope [1] | Ki ([1]; pH 7.4) [nM] | Ki (hMOR) [nM] | Imax (maximum percent inhibition of [3H]-cAMP accumulation) [2] [%] |
| --- | --- | --- | --- | --- | --- |
| C=CC[N+]1(C)CC[C@]23c4c5ccc(O)c4O[C@H]2C(=O)CC[C@@]3(O)[C@H]1C5 (stereo partly shown) [naloxone methiodide] | More than 94% |  |  |  |  |
| COC(=O)/C=C/C(=O)N[C@@H]1CC[C@@]2(O)[C@H]3Cc4ccc(O)c5c4[C@@]2(CCN3CC2CC2)[C@H]1O5 [β-FNA, β-funaltrexamine] |  | −1.01 | 1.85 | 0.3 |  |
| Oc1ccc2c3c1O[C@H]1c4[nH]c5ccccc5c4C[C@@]4(O)[C@@H](C2)N(CC2CC2)CC[C@]314 [Naltrindole, naltrindole] |  | −0.99 |  | 6.3 |  |
| C[C@@H](NC(=O)[C@@H](N)Cc1ccc(O)cc1)C(=O)NCC(=O)N(C)[C@@H](Cc1ccccc1)C(=O)NCCO [DAMGO, [D-Ala^2, N-Me-Phe^4, Gly^5-ol]-enkephalin] |  | −0.85 |  |  | 88.8 |
| Oc1ccc2c3c1O[C@H]1c4[nH]c5c(c4C[C@@]4(O)[C@@H](C2)N(CC2CC2)CC[C@]314)C[C@@]1(O)[C@H]2Cc3ccc(O)c4c3[C@@]1(CCN2CC1CC1)[C@H]5O4 [nor-BNI, nor-binaltorphimine] |  | −0.99 |  | 21 |  |
